Drawing on US7795229B2, “Serum cholesterol lowering agent or preventative or therapeutic agent for atherosclerosis” (Kotobuki Pharmaceutical Co., Ltd., priority 2003, dated 2010), this text covers melting point for 32 compounds.

SMILES strings stand for the structures.

By melting point is commonly meant the temperature of the solid-liquid transition. `O=C1[C@H](CCCc2ccc(F)cc2)[C@@H](c2ccc(C3O[C@H](CO)[C@@H](O)[C@H](O)[C@H]3O)cc2)N1c1ccc(F)cc1` (some centres unmarked) [Compound 1] gave a melting point of 89 to 90 °C.
Turning to `O=C1[C@H](CCCc2ccc(F)cc2)[C@@H](c2ccc(C[C@@H]3O[C@H](CO)[C@@H](O)[C@H](O)[C@H]3O)cc2)N1c1ccc(F)cc1` [Compound 2], the melting point fell in the range of 110 to 112 °C.
With `CC(=O)OC[C@H]1O[C@@H](Cc2ccc([C@@H]3[C@@H](CCCc4ccc(F)cc4)C(=O)N3c3ccc(F)cc3)cc2)[C@H](OC(C)=O)[C@@H](OC(C)=O)[C@@H]1OC(C)=O` [Compound 3] the figure was 56 to 58 °C; with `O=C1[C@H](CCCc2ccc(F)cc2)[C@@H](c2ccc(C[C@@H]3O[C@H](CO)[C@@H](O)[C@H](O)[C@H]3O)cc2)N1c1ccc(Cl)cc1` [Compound 4], 76 to 78 °C.
Turning to `COc1ccc(N2C(=O)[C@H](CCCc3ccc(F)cc3)[C@H]2c2ccc(C[C@@H]3O[C@H](CO)[C@@H](O)[C@H](O)[C@H]3O)cc2)cc1` [Compound 5], the melting point fell in the range of 73 to 75 °C.
In turn, `COc1ccc(N2C(=O)[C@H](CCCc3ccc(F)cc3)[C@H]2c2ccc(C[C@@H]3O[C@H](COC(C)=O)[C@@H](OC(C)=O)[C@H](OC(C)=O)[C@H]3OC(C)=O)cc2)cc1` [Compound 6] came in with a melting point of 60 to 62 °C.
As for `Cc1ccc(N2C(=O)[C@H](CCCc3ccc(F)cc3)[C@H]2c2ccc(C[C@@H]3O[C@H](CO)[C@@H](O)[C@H](O)[C@H]3O)cc2)cc1` [Compound 7], the melting point is 80 to 82 °C.
With `CC(=O)OC[C@H]1O[C@@H](Cc2ccc([C@@H]3[C@@H](CCCc4ccc(F)cc4)C(=O)N3c3ccc(C)cc3)cc2)[C@H](OC(C)=O)[C@@H](OC(C)=O)[C@@H]1OC(C)=O` [Compound 8] the figure was 56 to 58 °C; with `O=C1[C@H](CCCc2ccc(F)cc2)[C@@H](c2ccc(C[C@@H]3O[C@H](CO)[C@@H](O)[C@H](O)[C@H]3O)cc2)N1c1ccccc1` [Compound 9], 84 to 86 °C; with `CC(=O)OC[C@H]1O[C@@H](Cc2ccc([C@@H]3[C@@H](CCCc4ccc(F)cc4)C(=O)N3c3ccccc3)cc2)[C@H](OC(C)=O)[C@@H](OC(C)=O)[C@@H]1OC(C)=O` [Compound 10], 60 to 61 °C.
With `O=C1[C@H](CCCc2ccccc2)[C@@H](c2ccc(C[C@@H]3O[C@H](CO)[C@@H](O)[C@H](O)[C@H]3O)cc2)N1c1ccc(F)cc1` [Compound 11] the figure was 74 to 75 °C; with `O=C1[C@H](CCOc2ccc(F)cc2)[C@@H](c2ccc(C[C@@H]3O[C@H](CO)[C@@H](O)[C@H](O)[C@H]3O)cc2)N1c1ccc(F)cc1` [Compound 12], 65 to 67 °C; with `CC(=O)OC[C@H]1O[C@@H](Cc2ccc([C@@H]3[C@@H](CCOc4ccc(F)cc4)C(=O)N3c3ccc(F)cc3)cc2)[C@H](OC(C)=O)[C@@H](OC(C)=O)[C@@H]1OC(C)=O` [Compound 13], 64 to 66 °C.
The compound `O=C1[C@H](CCCc2ccc(F)cc2)[C@@H](c2ccc(OC[C@@H]3O[C@H](CO)[C@@H](O)[C@H](O)[C@H]3O)cc2)N1c1ccc(F)cc1` [Compound 14] had a melting point of 61 to 62 °C.
The compound `O=C1[C@H](CCOc2ccc(F)cc2)[C@@H](c2ccc(OC[C@@H]3O[C@H](CO)[C@@H](O)[C@H](O)[C@H]3O)cc2)N1c1ccc(F)cc1` [Compound 15] gave a melting point of 64 to 65 °C.
With `O=C1[C@H](CCCc2ccc(F)cc2)[C@@H](c2ccc(OC[C@@H]3O[C@H](CO)[C@@H](O)[C@H](O)[C@H]3O)cc2)N1Cc1ccccc1` [Compound 16] the figure was 73 to 75 °C; with `O=C(O)[C@H]1O[C@@H](Cc2ccc([C@@H]3[C@@H](CCCc4ccc(F)cc4)C(=O)N3c3ccc(F)cc3)cc2)[C@H](O)[C@@H](O)[C@@H]1O` [Compound 17], 105 to 106 °C.
With `CCOC(=O)C(C)(C)Oc1ccc(N2C(=O)[C@H](CCCc3ccc(F)cc3)[C@H]2c2ccc(C[C@@H]3O[C@H](CO)[C@@H](O)[C@H](O)[C@H]3O)cc2)cc1` [Compound 18] the figure was 73 to 74 °C; with `CC(C)(Oc1ccc(N2C(=O)[C@H](CCCc3ccc(F)cc3)[C@H]2c2ccc(C[C@@H]3O[C@H](CO)[C@@H](O)[C@H](O)[C@H]3O)cc2)cc1)C(=O)O` [Compound 19], 170 to 172 °C.
With `CCOC(=O)C(C)(C)Oc1ccc(N2C(=O)[C@H](CCCc3ccc(C)cc3)[C@H]2c2ccc(C[C@@H]3O[C@H](CO)[C@@H](O)[C@H](O)[C@H]3O)cc2)cc1` [Compound 20] the figure was 76 to 78 °C; with `Cc1ccc(CCC[C@H]2C(=O)N(c3ccc(OC(C)(C)C(=O)O)cc3)[C@@H]2c2ccc(C[C@@H]3O[C@H](CO)[C@@H](O)[C@H](O)[C@H]3O)cc2)cc1` [Compound 21], 161 to 162 °C.
With `O=C1[C@H](CC[C@H](O)c2ccc(F)cc2)[C@@H](c2ccc(C[C@@H]3O[C@H](CO)[C@@H](O)[C@H](O)[C@H]3O)cc2)N1c1ccc(F)cc1` [Compound 22], the melting point was 115 to 117 °C.
`O=C1[C@H](CC[C@H](O)c2ccc(F)cc2)[C@@H](c2ccc(C[C@@H]3O[C@H](CO)[C@@H](O)[C@H](O)[C@H]3O)cc2)N1c1ccccc1` [Compound 23]: the melting point lay in the range of 104 to 106 °C.
Regarding `Cc1ccc(N2C(=O)[C@H](CC[C@H](O)c3ccc(F)cc3)[C@H]2c2ccc(C[C@@H]3O[C@H](CO)[C@@H](O)[C@H](O)[C@H]3O)cc2)cc1` [Compound 24], the melting point is 102 to 104 °C.
The compound `O=C1[C@H](CCCc2ccc(F)cc2)[C@@H](c2ccc(C[C@@H]3O[C@H](CO)[C@@H](O)[C@H](O)[C@H]3O)cc2)N1c1ccc(F)cc1` [Compound 25] came in with a melting point of 67 to 69 °C.
With `O=C(CC[C@H]1C(=O)N(c2ccc(F)cc2)[C@@H]1c1ccc(C[C@@H]2O[C@H](CO)[C@@H](O)[C@H](O)[C@H]2O)cc1)c1ccc(F)cc1` [Compound 26] the figure was 78 to 80 °C; with `O=C(CC[C@H]1C(=O)N(c2ccccc2)[C@@H]1c1ccc(C[C@@H]2O[C@H](CO)[C@@H](O)[C@H](O)[C@H]2O)cc1)c1ccc(F)cc1` [Compound 27], 104 to 106 °C.
With `Cc1ccc(N2C(=O)[C@H](CCC(=O)c3ccc(F)cc3)[C@H]2c2ccc(C[C@@H]3O[C@H](CO)[C@@H](O)[C@H](O)[C@H]3O)cc2)cc1` [Compound 28] the figure was 86 to 88 °C; with `O=C(O)c1ccc(N2C(=O)[C@H](CC[C@H](O)c3ccc(F)cc3)[C@H]2c2ccc(C[C@@H]3O[C@H](CO)[C@@H](O)[C@H](O)[C@H]3O)cc2)cc1` [Compound 29], 148 to 150 °C.
Consider `O=C(O)c1ccc(N2C(=O)[C@H](CCC(=O)c3ccc(F)cc3)[C@H]2c2ccc(C[C@@H]3O[C@H](CO)[C@@H](O)[C@H](O)[C@H]3O)cc2)cc1` [Compound 30], for which the melting point fell in the range of 102 to 104 °C.
With `O=C(O)c1ccc(N2C(=O)[C@H](CCCc3ccc(F)cc3)[C@H]2c2ccc(C[C@@H]3O[C@H](CO)[C@@H](O)[C@H](O)[C@H]3O)cc2)cc1` [Compound 31] the figure was 97 to 99 °C.
With `O=C(O)[C@H]1O[C@@H](Cc2ccc([C@@H]3[C@@H](CC[C@H](O)c4ccc(F)cc4)C(=O)N3c3ccc(F)cc3)cc2)[C@H](O)[C@@H](O)[C@@H]1O` [Compound 33] the figure was 82 to 84 °C.
